This is an account of results in patent publication US20030064380A1, “Anergy-regulated molecules” (The Center For Blood Research, Inc., priority 2001, published 2003).

Structures are written as SMILES.

Data set [1] has as its system D5 and Th1 cells. Description: gene transcription profiles of ionomycin-induced genes (FIGS. 6B, 7B), Affymetrix arrays and real-time RT-PCR. Type of data set: cell-based, murine. As for the experimental part: D5 or primary T cells from NFAT1−/− or wild type DO11.10 transgenic mice were stimulated for 2, 6 or 16 hours with 500 nM ionomycin, 20 nM PMA plus 500 nM ionomycin, or 1 μM CsA plus 500 nM ionomycin. Total RNA was isolated with an RNeasy kit (QIAGEN). Ten μg of total RNA was quantitatively amplified and biotin-labeled as described (Byrne et al., (2000) “Preparation of mRNA for Expression Monitoring” Current Protocols in Molecular Biology (John Wiley & Sons, Inc.) pp. 22.22.21-22.22.13). Hybridization to GeneChips® (Affymetrix) displaying probes for 11,000 mouse genes/ESTs was performed at 40° C. overnight in a mix that included 10 μg fragmented RNA, 6× SSPE, 0.005% Triton X-100 and 100 μg/ml herring sperm DNA in a total volume of 200 μl. Chips were washed, stained with SA-PE and read using an Affymetrix GeneChip® scanner and accompanying gene expression software. […]
Total RNA was prepared from resting or stimulated T cells using Ultraspec reagent (Biotecx). cDNA was synthesized using oligo-dT primers and Superscript polymerase (Invitrogen) following the manufacturer's recommendations. Quantitative real-time PCR was performed in an I-Cycler (BioRad) using a SYBR Green PCR kit from Applied Biosystems and specific primers to amplify 100-200 bp fragments from the different genes analyzed. A threshold was set in the linear part of the amplification curve (fluorescence=f[cycle number]) and the number of cycles needed to reach it calculated for every gene. […]
Among them were many ESTs with no assigned function; a single cytokine gene, M-CSF; genes in other functional categories as shown in FIG. 6B; but no other genes normally associated with a productive immune response. […] To validate the array data, expression of 15 of the 18 genes were evaluated by quantitative real-time RT-PCR, and in every case ionomycin-mediated induction was confirmed (see numbers within panels of FIG. 6B). […]

Data set [2] relates to D5 or primary T cells. As to the kind of experiment: apoptosis assays of ionomycin-stimulated T cells. Type of data set: cell-based, murine. The note with it: several independent assays. The procedure: Apoptosis was detected by the Tunel method using the In situ Cell Death Detection kit (Boheringer) following manufacture's instructions. Stained cells were analyzed on a FACSCAN (Beckton-Dickinson).
(§1) Of particular interest was the fact that several of the ionomycin-induced genes encoded proteins involved (or potentially involved) in protein degradation. Candidate genes in this category included caspase-3, SOCS-2 and Traf5 (FIG. 6B). Caspase-3 is an enzyme for which commercial reagents are readily available. Tests were conducted to determine whether caspase-3 was activated and functional in ionomycin-pretreated T cells. […] Further work will be necessary to establish whether proteolysis occurs in specific intracellular compartments relevant to TCR signal transduction or whether other signaling proteins are substrates for proteolysis in anergic cells.

Data set [3] has as its system NFAT, AP-1 and NFκB DNA-binding activity. As to the kind of experiment: electrophoretic mobility shift assay of nuclear extracts of stimulated Th1 cells. The class given is cell-based. As for the experimental part:
Nuclear extracts were prepared from Th1 cells, unstimulated or stimulated for 60 minutes with 500 nM ionomycin or 20 nM PMA plus 500 nM ionomycin. Binding reactions were performed as previously described (Macian et al., (2000) EMBO J. 19: […]) using NFAT, AP-1 and NF-KB specific probes (Goldfeld et al., (1993) J. Exp. Med. 178: 1365-1379).
Background: In EMSA bound probe runs differently from free probe, usually more slowly.

Data set [4] concerns Th2 cells. Description: cytokine mRNA levels in Th2 cells after ionomycin pretreatment. Type of data set: cell-based. As for the experimental part:
(§2) Total cellular RNA was purified from resting cells or cells stimulated with APC and antigen or anti-CD3 plus anti-CD28 for 4 h, using Ultraspec reagent (Biotecx) and analyzed using the RiboQuant multiprobe RNase protection kit and specific multi-set probes (Pharmingen) according to the manufacturer's instructions. Jurkat cells were transfected by electroporation in serum-free medium with pulses of 250 V and 960 μF with […] of pEGFPN1 (Clontech) or pNLS-NFAT1 (ST2+5+8) (Okamura et al., (2000) Mol. Cell. 6: 539-550). RNA from transiently transfected Jurkat cells was obtained after selecting transfected cells for expression of a cotransfected murine CD4 plasmid using magnetic beads (Dynal).
Thus the net effect of a tolerising stimulus on T cells is to skew the cytokine response towards production of the immunosuppressive cytokine […], while down-regulating production of multiple other cytokines and chemokines associated with a productive immune response.

Data set [5] relates to caspase-3. Description: RNase protection assay of caspase-3 mRNA. The note with it: D5 T cells. Type of data set: cell-based, murine. As for the experimental part: as §2, §1

`C[C@H](CCC(=O)O)C[C@H](C)C[C@H](C)C(=O)/C=C(\O)[C@H](C)C[C@H](C)C/C=C/[C@@H](C)[C@@H](O)[C@@H](C)[C@@H](O)C[C@@H]1CC[C@@](C)([C@H]2CC[C@@](C)([C@@H](C)O)O2)O1` [Ionomycin, ionomycin]: the “induction of Grg4, Ikaros, PTP-1B and GBP-3” value in data set [1] (compared to PMA/ionomycin) is given as “more strongly induced”. Moreover, in data set [1] (early times), the “induction of Rab-10” value is given as “markedly induced”. In data set [1] (ionomycin versus PMA/ionomycin), the “induction of jumonji, CD98 and FasL” value is on record as “similarly induced”. Moreover, the apoptosis result in data set [2] is “no detectable apoptosis”. In addition, in data set [3], the “AP-1 or NFκB DNA-binding activity” value is given as “no increase” and the “NFAT DNA-binding activity” value was “increased”. For the same compound, in data set [4], the IL-10 transcript levels entry is on record as “not affected”; the “reduction in mRNA levels of IL-4, IL-5 and IL-13” value was “approximately 70%”. For the same compound, in data set [5], the “caspase-3 mRNA level” value is given as “upregulated”.
